Experimental data reported in patent US20230146455A1, “TREATMENT OF INFLAMMATORY DISEASES WITH PEPTIDES AND PHARMACEUTICAL COMPOSITIONS” (Yuyu Pharma, Inc., priority 2020, published 2023).
“And” between values parts separate entries of the source, which are not always exact repeats. Equal values may be shown once. Where a SMILES comes first, the peptide text is derived from it. [ ]: non-standard residue; d: D form. Hyp = O=C(O)[C@@H]1C[C@@H](O)CN1

Legend:
Format in all cases: cell-based, human
[1] = system: CCL4/MIP-1 beta; assay: Example 8 main study Luminex, LPS hPBMCs: CCL4/MIP-1 beta
Method: (§1) Human PBMCs were pretreated with YY-101, YDE-011, YDE-043 or reference compound; Xiidra® at various concentration (ranging from […] to 500 nM) for 2 h before stimulation. An equal volume of 0.5% DMSO was used as a vehicle control. Then, the cells were treated with LPS at 5 ug/ml, which was selected based on the pilot study. The supernatants from treated cells were harvested at 24 h and placed in a 96 well for Luminex cytokine & chemokine profiling using a Luminex 200 multiplex assay (Luminex; R&D system, USA).
(§2) The main study arm with triplicate wells per group in a 24-well plate: • 1. Blank • 2. PBMC: 0.5% DMSO • 3. PBMC+LPS (5 ug/ml) • 4. PBMC+YY-101 500 nM • 5. PBMC+YY-101 50 nM • 6. PBMC+YY-101 5 nM • 7. PBMC+YY-101 0.5 nM • 8. PBMC+LPS (5 ug/ml)+Xiidra® 500 nM • 9. PBMC+LPS (5 ug/ml)+Xiidra® 50 nM • 10. PBMC+LPS (5 ug/ml)+Xiidra® 5 nM • 11. PBMC+LPS (5 ug/ml)+Xiidra® 0.5 nM • 12. PBMC+LPS (5 ug/ml)+Xiidra® 0.05 nM • 13. PBMC+LPS (5 ug/ml)+Xiidra® 0.005 nM • 14. PBMC+LPS (5 ug/ml)+YY-101 500 nM • 15. PBMC+LPS (5 ug/ml)+YY-101 50 nM • 16. PBMC+LPS (5 ug/ml)+YY-101 5 nM • 17. PBMC+LPS (5 ug/ml)+YY-101 0.5 nM • 18. PBMC+LPS (5 ug/ml)+YY-101 0.05 nM • 19. PBMC+LPS (5 ug/ml)+YY-101 0.005 nM • 20. PBMC+LPS (5 ug/ml)+YDE-011 500 nM • 21. PBMC+LPS (5 ug/ml)+YDE-011 50 nM • 22. PBMC+LPS (5 ug/ml)+YDE-011 5 nM • 23. PBMC+LPS (5 ug/ml)+YDE-011 0.5 nM • 24. PBMC+LPS (5 ug/ml)+YDE-011 0.05 nM • 25. PBMC+LPS (5 ug/ml)+YDE-011 0.005 nM • 26. PBMC+LPS (5 ug/ml)+YDE-043 500 nM • 27. PBMC+LPS (5 ug/ml)+YDE-043 50 nM • 28. PBMC+LPS (5 ug/ml)+YDE-043 5 nM • 29. PBMC+LPS (5 ug/ml)+YDE-043 0.5 nM • 30. PBMC+LPS (5 ug/ml)+YDE-043 0.05 nM • 31. PBMC+LPS (5 ug/ml)+YDE-043 0.005 nM
(§3) Multiplex assay was used to measure 30 cytokines and chemokines. The 1:200 diluted cell supernatant and serial dilution of the standard were dispensed into a 96 well plate at 50 ul/well. Then, the pre-mixed cocktail of antibody-coated magnetic beads was dispensed at 50 ul/well and incubated at room temperature for 2 h in a horizontal orbital microplate shaker at 800±500 rpm. The beads were washed using a magnetic device to prevent loss. The biotin-antibody was dispensed in 50 ul of each well and incubated at room temperature for 1 h in a shaker at 800±500 rpm. After washing, streptavidin-PE was added at 50 ul/well and incubated at room temperature for 30 min in a shaker under the same conditions. Finally, after washing, wash buffer (100 ul/well) was added to the plate and incubated in a shaker for 2 min. The Luminex™ 200 setting were set according to the manufacturer's protocol. The data was calculated with a standard five-parameter logistic nonlinear regression analysis of the data (xPonent software 4.2, USA). Results were presented as concentration (ng/ml or pg/ml).

[2] = system: IL-1 alpha/IL-1F1; assay: Example 8 main study Luminex, LPS hPBMCs: IL-1 alpha/IL-1F1
Method: as §1, §2, §3

[3] = system: Leptin; assay: Example 8 main study Luminex, LPS hPBMCs: Leptin; conditions: PBMC + LPS(5 ug/ml)
Method: as §1, §2, §3

[4] = PBMC + LPS(5 ug/ml) + test article 0.005 nM, Mean
[5] = PBMC + LPS(5 ug/ml) + test article 0.005 nM, single replicates
[6] = PBMC + LPS(5 ug/ml) + test article 0.05 nM, Mean
[7] = PBMC + LPS(5 ug/ml) + test article 0.05 nM, single replicates
[8] = PBMC + LPS(5 ug/ml) + test article 0.5 nM, Mean
[9] = PBMC + LPS(5 ug/ml) + test article 0.5 nM, single replicates
[10] = PBMC + LPS(5 ug/ml) + test article 5 nM, Mean
[11] = PBMC + LPS(5 ug/ml) + test article 5 nM, single replicates
[12] = PBMC + LPS(5 ug/ml) + test article 50 nM, Mean
[13] = PBMC + LPS(5 ug/ml) + test article 50 nM, single replicates
[14] = PBMC + LPS(5 ug/ml) + test article 500 nM, Mean
[15] = PBMC + LPS(5 ug/ml) + test article 500 nM, single replicates
[16] = PBMC + LPS(5 ug/ml) + test article 0.005 nM, individual replicates
[17] = PBMC + LPS(5 ug/ml) + test article 0.05 nM, individual replicates
[18] = PBMC + LPS(5 ug/ml) + test article 0.5 nM, individual replicates
[19] = PBMC + LPS(5 ug/ml) + test article 5 nM, individual replicates
[20] = PBMC + LPS(5 ug/ml) + test article 50 nM, individual replicates
[21] = PBMC + LPS(5 ug/ml) + test article 500 nM, individual replicates

Compound: CC(C)C[C@H](NC(=O)CNC(=O)[C@H](CC(C)C)NC(=O)[C@H](CCC(N)=O)NC(=O)CNC(=O)[C@@H]1C[C@@H](O)CN1)C(=O)N[C@@H](C)C(=O)NCC(=O)N1CCC[C@H]1C(=O)N[C@@H](CCCCN)C(=O)O [YDE-011] (H-[Hyp]GQLGLAGPK-OH)
- CCL4/MIP-1 beta Concentration [1, 4]: 20786.2 pg/mL
- CCL4/MIP-1 beta MFI [1, 4]: 12.3
- CCL4/MIP-1 beta Concentration [1, 5]: 19701.2 pg/ml (2×) and 22956.0 pg/ml
- CCL4/MIP-1 beta MFI [1, 5]: 12.0 (2×) and 13.0
- CCL4/MIP-1 beta Concentration [1, 6]: 22956.0 pg/mL
- CCL4/MIP-1 beta MFI [1, 6]: 13.0
- CCL4/MIP-1 beta Concentration [1, 7]: 22956.0 pg/mL
- CCL4/MIP-1 beta MFI [1, 7]: 13.0
- CCL4/MIP-1 beta Concentration [1, 8]: 22956.0 pg/mL
- CCL4/MIP-1 beta MFI [1, 8]: 13.0
- CCL4/MIP-1 beta Concentration [1, 9]: 22956.0 pg/mL
- CCL4/MIP-1 beta MFI [1, 9]: 13.0
- CCL4/MIP-1 beta Concentration [1, 10]: 16738.7 pg/mL
- CCL4/MIP-1 beta MFI [1, 10]: 11.3
- CCL4/MIP-1 beta Concentration [1, 11]: 15257.5 pg/ml (2×) and 19701.2 pg/ml
- CCL4/MIP-1 beta MFI [1, 11]: 11.0 (2×) and 12.0
- CCL4/MIP-1 beta Concentration [1, 12]: 23847.2 pg/mL
- CCL4/MIP-1 beta MFI [1, 12]: 13.3
- CCL4/MIP-1 beta Concentration [1, 13]: 25629.7 pg/ml and 22956.0 pg/ml (2×)
- CCL4/MIP-1 beta MFI [1, 13]: 14.0 and 13.0 (2×)
- CCL4/MIP-1 beta Concentration [1, 14]: 13759.1 pg/mL
- CCL4/MIP-1 beta MFI [1, 14]: 11.3
- CCL4/MIP-1 beta Concentration [1, 15]: 19701.2 pg/ml (2×) and 1874.9 pg/ml
- CCL4/MIP-1 beta MFI [1, 15]: 12.0 (2×) and 10.0
- LPS-induced CCL-4 (in words) ([1]; at as low as 5 μM, LPS 5 ug/mL 24 hrs): significantly reduced
- IL-1 alpha/IL-1F1 Concentration [2, 4]: 510.2 pg/mL
- IL-1 alpha/IL-1F1 MFI [2, 4]: 31.2
- IL-1 alpha/IL-1F1 Concentration [2, 16]: 595.1 pg/mL and 460.1 pg/mL and 475.3 pg/mL
- IL-1 alpha/IL-1F1 MFI [2, 16]: 34.0 and 29.5 and 30.0
- IL-1 alpha/IL-1F1 Concentration [2, 6]: 510.3 pg/mL
- IL-1 alpha/IL-1F1 MFI [2, 6]: 31.2
- IL-1 alpha/IL-1F1 Concentration [2, 17]: 535.6 pg/mL and 550.5 pg/mL and 444.9 pg/mL
- IL-1 alpha/IL-1F1 MFI [2, 17]: 32.0 and 32.5 and 29.0
- IL-1 alpha/IL-1F1 Concentration [2, 8]: 403.8 pg/mL
- IL-1 alpha/IL-1F1 MFI [2, 8]: 27.7
- IL-1 alpha/IL-1F1 Concentration [2, 18]: 429.6 pg/mL and 383.2 pg/mL and 398.7 pg/mL
- IL-1 alpha/IL-1F1 MFI [2, 18]: 28.5 and 27.0 and 27.5
- IL-1 alpha/IL-1F1 Concentration [2, 10]: 324.6 pg/mL
- IL-1 alpha/IL-1F1 MFI [2, 10]: 25.2
- IL-1 alpha/IL-1F1 Concentration [2, 19]: 256.0 pg/mL and 288.4 pg/mL and 429.6 pg/mL
- IL-1 alpha/IL-1F1 MFI [2, 19]: 23.0 and 24.0 and 28.5
- IL-1 alpha/IL-1F1 Concentration [2, 12]: 278.0 pg/mL
- IL-1 alpha/IL-1F1 MFI [2, 12]: 23.8
- IL-1 alpha/IL-1F1 Concentration [2, 20]: 320.3 pg/mL and 84.2 pg/mL and 429.6 pg/mL
- IL-1 alpha/IL-1F1 MFI [2, 20]: 25.0 and 18.0 and 28.5
- IL-1 alpha/IL-1F1 Concentration [2, 14]: 275.3 pg/mL
- IL-1 alpha/IL-1F1 MFI [2, 14]: 24.0
- IL-1 alpha/IL-1F1 Concentration [2, 21]: 535.6 pg/mL and 1.9 pg/mL and 288.4 pg/mL
- IL-1 alpha/IL-1F1 MFI [2, 21]: 32.0 and 16.0 and 24.0
- Leptin Concentration (pg/ml), Mean ([3]; test article 0.005 nM): 14975.6 pg/mL
- Leptin Concentration (pg/ml), single replicates ([3]; test article 0.005 nM): 17222.7 pg/ml (2×) and 10481.4 pg/ml
- Leptin Concentration (pg/ml), Mean ([3]; test article 0.05 nM): 14835.2 pg/mL
- Leptin Concentration (pg/ml), single replicates ([3]; test article 0.05 nM): 19789.4 pg/mL and 10481.4 pg/mL and 14234.9 pg/mL
- Leptin Concentration (pg/ml), Mean ([3]; test article 0.5 nM): 9683.0 pg/mL
- Leptin Concentration (pg/ml), single replicates ([3]; test article 0.5 nM): 10481.4 pg/mL and 4332.6 pg/mL and 14234.9 pg/mL
- Leptin Concentration (pg/ml), Mean ([3]; test article 5 nM): 10777.7 pg/mL
- Leptin Concentration (pg/ml), single replicates ([3]; test article 5 nM): <98.95 pg/mL and 4332.6 pg/mL and 17222.7 pg/mL
- Leptin Concentration (pg/ml), Mean ([3]; test article 50 nM): 12358.1 pg/mL
- Leptin Concentration (pg/ml), single replicates ([3]; test article 50 nM): 10481.4 pg/mL and 14234.9 pg/mL and <98.95 pg/mL
- Leptin Concentration (pg/ml), Mean ([3]; test article 500 nM): 13896.3 pg/mL
- Leptin Concentration (pg/ml), single replicates ([3]; test article 500 nM): 19789.4 pg/mL and <98.95 pg/mL and 8003.2 pg/mL
